The experiment concerns L1210 leukemia ip in BDF1 mice, survival T/C. In words: NCI In Vivo Anticancer Drug Screen. Data for tumor model L1210 Leukemia (intraperitoneal) in B6D2F1 (BDF1) mice. The note with it: endpoint: mean survival time, higher = longer survival. In a few lines: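 Tumor was transplanted into mice, which were then dosed with test compound or vehicle alone. Survival was recorded for each group, and the treated figure was expressed relative to the control figure.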

[1] abbreviates: dose: 100.0 mg/kg/injection, schedule: Q01DX001 (ip), vehicle: saline.
Setting [2] is: dose: 200.0 mg/kg/injection, schedule: Q01DX001 (ip), vehicle: saline.
[3] abbreviates: dose: 100.0 mg/kg/injection, schedule: Q01DX009 (ip), vehicle: saline.
Setting [4] is: dose: 200.0 mg/kg/injection, schedule: Q01DX009 (ip), vehicle: saline.
Where [5] appears, read: dose: 400.0 mg/kg/injection, schedule: Q01DX001 (ip), vehicle: saline.
[6] abbreviates: dose: 200.0 mg/kg/injection, schedule: Q01DX001 (ip), vehicle: carboxymethylcellulose (CMC).
The mark [7] stands for this setting: dose: 400.0 mg/kg/injection, schedule: Q01DX001 (ip), vehicle: carboxymethylcellulose (CMC).

Inconclusive results and toxic doses are left out.

In the case of `C1OC1CN1CCN(CC2CO2)CC1` (stereo not given), the T/C is 101 % of control (dose: 1.2 mg/kg/injection, schedule: Q01DX009 (ip), vehicle: saline); 117 % of control (dose: 1.8 mg/kg/injection, schedule: Q01DX009 (ip), vehicle: saline); 117 % of control (dose: 2.0 mg/kg/injection, schedule: Q03HX008 (ip), vehicle: saline); 102 % of control (dose: 2.0 mg/kg/injection, schedule: Q03HX016 (ip), vehicle: saline); 121 % of control (dose: 2.0 mg/kg/injection, schedule: Q03HX024 (ip), vehicle: saline); 118 % of control (dose: 3.5 mg/kg/injection, schedule: Q01DX009 (ip), vehicle: saline). Moreover, the T/C is 114 % of control (dose: 4.0 mg/kg/injection, schedule: Q03HX008 (ip), vehicle: saline); 114 % of control (dose: 4.0 mg/kg/injection, schedule: Q03HX016 (ip), vehicle: saline); 121 % of control (dose: 6.25 mg/kg/injection, schedule: Q01DX009 (ip), vehicle: saline); 101 % of control (dose: 8.0 mg/kg/injection, schedule: Q01DX009 (sc), vehicle: saline); 114 % of control (dose: 8.0 mg/kg/injection, schedule: Q03HX008 (ip), vehicle: saline); 94 % of control (dose: 8.0 mg/kg/injection, schedule: Q03HX016 (ip), vehicle: saline). Besides, the T/C reads like this: (dose: 12.5 mg/kg/injection, schedule: Q01DX009 (ip), vehicle: saline) 164 % of control; (dose: 15.0 mg/kg/injection, schedule: Q01DX009 (ip), vehicle: saline) 157 % of control; (dose: 16.0 mg/kg/injection, schedule: Q01DX001 (sc), vehicle: saline) 106 % of control; (dose: 16.0 mg/kg/injection, schedule: Q01DX009 (sc), vehicle: saline) 106 % of control; (dose: 30.0 mg/kg/injection, schedule: Q01DX009 (ip), vehicle: saline) 208 % of control; (dose: 32.0 mg/kg/injection, schedule: Q01DX001 (oral), vehicle: saline) 113 % of control. Besides, the T/C (dose: 32.0 mg/kg/injection, schedule: Q01DX001 (sc), vehicle: saline) is 98 % of control; the T/C (dose: 32.0 mg/kg/injection, schedule: Q01DX009 (ip), vehicle: saline) was 102 % of control; the T/C (dose: 32.0 mg/kg/injection, schedule: Q01DX009 (oral), vehicle: saline) was 153 % of control; the T/C (dose: 32.0 mg/kg/injection, schedule: Q04DX003 (ip), vehicle: saline) was 165 % of control; the T/C (dose: 50.0 mg/kg/injection, schedule: Q01DX009 (ip), vehicle: saline) is 111 % of control; the T/C (dose: 60.0 mg/kg/injection, schedule: Q01DX009 (ip), vehicle: saline) is 92 % of control. In addition, the T/C was 123 % of control (dose: 64.0 mg/kg/injection, schedule: Q01DX001 (oral), vehicle: saline); 113 % of control (dose: 64.0 mg/kg/injection, schedule: Q01DX001 (sc), vehicle: saline); 165 % of control (dose: 64.0 mg/kg/injection, schedule: Q01DX009 (oral), vehicle: saline); 160 % of control (dose: 64.0 mg/kg/injection, schedule: Q01DX009 (sc), vehicle: saline); 176 % of control under setting [1]; 182 % of control (dose: 120.0 mg/kg/injection, schedule: Q01DX001 (ip), vehicle: saline). For the same compound, the T/C runs as follows: (dose: 128.0 mg/kg/injection, schedule: Q01DX001 (sc), vehicle: saline) 116 % of control; (dose: 180.0 mg/kg/injection, schedule: Q01DX001 (ip), vehicle: saline) 168 % of control; under setting [2], 90 % of control; (dose: 256.0 mg/kg/injection, schedule: Q01DX001 (sc), vehicle: saline) 151 % of control.
Turning to `COc1c2c(cc3c1N(C)C(=O)CC3C)C(C)CC(=O)N2` (stereo not given), the T/C (dose: 75.0 mg/kg/injection, schedule: Q04DX003 (ip), vehicle: Klucel (hydroxypropylcellulose) (HPC)) was 98 % of control.
Take `O=S(=O)(O)c1ccncc1`: the T/C runs as follows: under setting [1], 96 % of control; under setting [3], 96 % of control; under setting [2], 91 % of control; under setting [4], 87 % of control; under setting [5], 88 % of control; (dose: 400.0 mg/kg/injection, schedule: Q01DX009 (ip), vehicle: saline) 96 % of control.
Consider `CC1(C)C(=O)Nc2ccccc2N1C(=O)CN1CC2CCC(CC2)C1`, for which the T/C was 94 % of control under setting [3]; 93 % of control (dose: 100.0 mg/kg/injection, schedule: Q04DX003 (ip), vehicle: saline); 92 % of control under setting [4]; 95 % of control (dose: 200.0 mg/kg/injection, schedule: Q04DX003 (ip), vehicle: saline); 98 % of control (dose: 400.0 mg/kg/injection, schedule: Q04DX003 (ip), vehicle: saline).
For the compound `CCCCNC(=S)SCCC(=O)O`, the T/C by setting is: (dose: 100.0 mg/kg/injection, schedule: Q04DX002 (ip), vehicle: saline with Tween-80) 100 % of control; (dose: 200.0 mg/kg/injection, schedule: Q04DX002 (ip), vehicle: saline with Tween-80) 104 % of control; (dose: 400.0 mg/kg/injection, schedule: Q04DX002 (ip), vehicle: saline with Tween-80) 102 % of control.
Take `C=CCCCCCCC=C`: the T/C runs as follows: (dose: 50.0 mg/kg/injection, schedule: Q01DX001 (ip), vehicle: carboxymethylcellulose (CMC)) 93 % of control; under setting [6], 88 % of control; under setting [7], 93 % of control.
In the case of `Cc1ccc(Nc2c3ccccc3nc3ccccc23)c(C)c1`, the T/C was 96 % of control (dose: 100.0 mg/kg/injection, schedule: Q04DX003 (ip), vehicle: Klucel (hydroxypropylcellulose) (HPC)) and 100 % of control (dose: 200.0 mg/kg/injection, schedule: Q04DX003 (ip), vehicle: Klucel (hydroxypropylcellulose) (HPC)).
In the case of `CC/C(=C(\CC)c1ccc(OCCOS(C)(=O)=O)cc1)c1ccc(OCCOS(C)(=O)=O)cc1`, the T/C reads like this: (dose: 12.5 mg/kg/injection, schedule: Q04DX002 (ip), vehicle: saline) 97 % of control; (dose: 25.0 mg/kg/injection, schedule: Q04DX002 (ip), vehicle: saline) 101 % of control; (dose: 50.0 mg/kg/injection, schedule: Q04DX002 (ip), vehicle: saline) 94 % of control.
Regarding `CCCCCCCCCCCCCC(C1CCCCC1)C1CCCCC1`, the T/C is 113 % of control (dose: 100.0 mg/kg/injection, schedule: Q01DX001 (ip), vehicle: saline with Tween-80); 93 % of control (dose: 200.0 mg/kg/injection, schedule: Q01DX001 (ip), vehicle: saline with Tween-80); 95 % of control (dose: 400.0 mg/kg/injection, schedule: Q01DX001 (ip), vehicle: saline with Tween-80).
Consider `CCOC(=O)NS(=O)(=O)[N+](CC)(CC)CC`, for which the T/C was 97 % of control (dose: 100.0 mg/kg/injection, schedule: Q01DX001 (ip), vehicle: carboxymethylcellulose (CMC)); 97 % of control under setting [6]; 100 % of control under setting [7].
In the case of `CCCCCCCCCCCCN1CC1`, the T/C runs as follows: (dose: 10.0 mg/kg/injection, schedule: Q01DX009 (ip), vehicle: Klucel (hydroxypropylcellulose) (HPC)) 108 % of control; (dose: 20.0 mg/kg/injection, schedule: Q01DX009 (ip), vehicle: Klucel (hydroxypropylcellulose) (HPC)) 109 % of control.
As for `CCOC(=O)C(C(C)=O)C(CCc1cc(OC)ccc1OC)C(C(C)=O)C(=O)OCC` (stereo not given), the T/C by setting is: under setting [1], 109 % of control; under setting [2], 101 % of control; under setting [5], 97 % of control.
For the compound `ClC(Cl)(Cl)c1cccc(-c2nc(NCCCN3CCCC3)nc(C(Cl)(Cl)Cl)n2)c1`, the T/C is 102 % of control (dose: 100.0 mg/kg/injection, schedule: Q01DX009 (ip), vehicle: Klucel (hydroxypropylcellulose) (HPC)); 100 % of control (dose: 200.0 mg/kg/injection, schedule: Q01DX009 (ip), vehicle: Klucel (hydroxypropylcellulose) (HPC)); 86 % of control (dose: 400.0 mg/kg/injection, schedule: Q01DX009 (ip), vehicle: Klucel (hydroxypropylcellulose) (HPC)).
On to `CCN(CC)C(=S)[S][Sb]([S]C(=S)N(CC)CC)[c]1ccccc1`, for which the T/C runs as follows: (dose: 100.0 mg/kg/injection, schedule: Q01DX001 (ip), vehicle: other) 112 % of control; (dose: 200.0 mg/kg/injection, schedule: Q01DX001 (ip), vehicle: other) 89 % of control.
Turning to `CCC(=O)Nc1cccc(OC(=O)NC(C)C)c1`, the T/C was 95 % of control (dose: 100.0 mg/kg/injection, schedule: Q01DX009 (ip), vehicle: saline with Tween-80) and 90 % of control (dose: 200.0 mg/kg/injection, schedule: Q01DX009 (ip), vehicle: saline with Tween-80).

Source of the values: PubChem BioAssay AID248 (DTP/NCI, 2004).
